“And” between values parts separate entries of the source, which are not always exact repeats. Equal entries are not always repeated.
What was measured:
HIV-1 Tat protein = assay: cells; format: cell-based; conditions: Table 3, samples run in duplicate, each value mean of two determinations; for inhibition at 10 µg/mL / inhibition at 30 µg/mL: Human immunodeficiency virus 1, COS; for inhibition at 10 µg/mL: read-out: % Inhibition of Tat Transactivation, 10 μg/ml; for inhibition at 30 µg/mL: read-out: % Inhibition of Tat Transactivation, 30 μg/ml
Protocol: […] P. Loeffler and J. P. Behr, Meth. Enzymol. 217:599 (1993)). Cells were incubated for 12-15 hours after transfection before the extract was added at the various concentrations noted. The cultures were incubated for 48 hours, after which 250 μl of the culture supernatant was assayed for SEAP activity as described in Example 4.
The SEAP Assay. The "SEcreted Alkaline Phosphatase" assay for Tat transactivation has been described previously (Berger et al., Gene 66:1-10, 1988; Bohan et al., Gene Expression 2(4):391-407, 1992). The details of the entire procedure for the SEAP inhibition assay as used herein have been described (Gnabre et al. Journal of Chromatography A 719:353-364 (1996)).
The secreted alkaline phosphatase analysis was performed as originally described by Berger et al. In this assay, a DNA expression vector wherein a structural gene encoding a secreted alkaline phosphatase is driven by an enhancer-linked promoter is transfected into target cells. The cells are then exposed to compounds which affect the binding/activation of the transcription regulatory proteins, and the amount of SEAP activity in the medium is measured.
As to the alkaline phosphatase assay, briefly, a 250-μl aliquot was removed from COS cell culture supernatants, heated at 65° C. for 5 minutes to selectively inactivate endogenous phosphatase (SEAP is heat stable) and centrifuged in a microfuge for 2 minutes. […] of 2×SEAP assay buffer (1.0 M diethanolamine, pH 9.8; 0.5 mM MgCl2; 10 mM L-homoarginine) was added to 100-μl aliquot of the samples. The solution was mixed and transferred into a 96-well flat-bottom culture dish (Corning). Twenty μl of pre-warmed substrate solution (120 mM p-nitrophenylphosphate dissolved in 1×SEAP assay buffer) were dispensed with a multipipeter into each well containing the reaction mixture. The A405 of the reaction was read at 5-minute intervals at 37° C. for 60 minutes using an EL340i microplate reader (Bio-tek Instruments, Inc.) with 5-second automatic shakings before each reading. The change in absorbance was plotted against time in the standard assay of SEAP induction. In the drug screening assay, the percent inhibition of SEAP expression was calculated at its 30 min endpoint as follows:
% Inhibition=100-[(CT^+ -C^+)/(CT^- -C^-)]×100
The 3-Magi extract was monitored by SiO2 TLC with cerium sulfate charring, 2% CeSO4 (w/V) in 5.6% H2 SO4 (v/v), and by the SEAP assay for anti Tat-TRS activity. For the SEAP assay, test materials were dissolved in 10% DMSO solution made in calcium-free, magnesium-free PBS (Ca--Mg-free PBS). The suspension was centrifuged and the stock solution (10 mg/ml) was filter-sterilized using a Millex-GS […] filter (Millipore). Appropriate dilutions of the stock solution were prepared in a final DMSO concentration of 0.2% in Ca--Mg-free PBS to obtain the various concentrations of test compounds.
The 3-Magi extract prepared as in Examples 1 and 2 was assayed by the SEAP assay for anti Tat-TRS activity. […] Briefly, a day before DNA transfection, Linbro® 24 flat bottom wells of 17-mm diameter plates were pretreated with 0.5 ml sterile solution of 0.1% gelatin. The plates were kept in a tissue culture hood for 1 hour (all transfection steps were performed in the hood, unless otherwise stated). The gelatin solution was aspirated and the plates were washed with 0.5 ml of Iscove's Modified Delbecco's Medium (IMDM) supplemented with 10% fetal calf serum and antibiotics (complete medium). COS cells were seeded at a density of ≈1.5×10^5 cells per 17-mm plate and incubated in a humidified 95% air/5% CO2 incubator at 37° C. DNA transfection was performed at 50-60% cell confluency.

HIV-LTR = assay: in vitro HIV gene transcription assay (Hela whole-cell extract, pLTR-1CAT template); format: biochemical, HIV-1; conditions: for CPM of run off transcription: 329 nt run off, DMSO control 625; for % Transcription (% T): DMSO control = 100
Protocol: This procedure was utilized to test lignans from the creosote bush including Rev.10:7 lignans (FB3 and FB5).
The inhibitory activity of the lignans prepared by the large scale isolation described in FIG. 6 is shown. The activity of the cyclolignans FB3 and FB5 is highlighted. Compounds FB1, FB2 and FB4 were each tested at 100, 120, 140 μg/ml. Rev.10:7 lignans (FB3 and FB5) were tested only at 100, 120 μg/ml.
The DNA used as template was the plasmid pLTR-1CAT, which contains HIV-LTR (-453 to +126) fused to the prokaryotic chloramphenicol acetyltransferase (CAT) gene. Unlabeled nucleoside triphosphates were from Pharmacia, and [α-^32 P]UTP (400 Ci/mmol) from Amersham.
DNA digests were then subjected to twice phenol-chloroform-isoamyl alcohol […] extractions and subsequently precipitated by ethanol. Hela whole-cell extracts (Manley extract) containing the polymerase and the transcription factors was prepared as previously described (Manley et al., Proc. Acad. Sci. USA 77:3855-3859 (1988)).
The transcription assay has been previously described (Bohan et al., Gene Expression 2:391-407 (1992)). Extracts prepared by the method of Manley, described above, (40 μg/reaction) and DNA template (0.4 μg/reaction)were preincubated with 0.4 μl of various concentrations of test compounds for 15 min at 30° C. The in vitro transcription buffer of Manley extract contained 10 mM HEPES (pH 7.9), 50 mM KCl, 0.5 mM EDTA, 1.5 mM […], 6.25 mM MgCl2, and 8.5% glycerol. Unlabeled nucleoside triphosphates and [α-^32 P]UTP (400 Ci/mmol) were mixed and added to the reaction mixture. The final volume of the reaction was brought to 15 μl followed by 1 hour incubation at 30° C. as illustrated in FIG. 9.
The transcription reaction was terminated by addition of 300 μl of stop solution (20 mM tris-HCl (pH 7.8), 150 mM NaCl, and 0.2% SDS), and extracted with equal volume of phenol. RNA in the aqueous phase was precipitated with 2.5 volumes of EtOH and 0.1 volume of 3 M sodium acetate. Following centrifugation, RNA pellets were washed with EtOH, dried and resuspended in 15 μl of denaturation mix containing 50% formamide:50% of 2×TBE, Xylene cyanol and bromophenol blue. The mixture was heated at 90° C. for 3 min, and electrophoresed at 400 V in 4% polyacrylamide (19:1 acrylamide:bisacrylamide) gel containing 7 M urea (prerun at 200 V for 30 min) and 1×TBE. The gel was exposed to Kodak XR-5 film at -70° C. with intensifying screens for autoradiography. Table 4 illustrates the same results in numerical form after radioactivity counts of the 329 nt run off transcription spots.

[1] = 140 μg/ml, estimated from Kodak film of gel after 3 day exposure

Row | Molecule | % Inhibition of Tat Transactivation (HIV-1 Tat protein; 30 μg/ml) | % Inhibitor (100 - % T) (HIV-LTR; 100 μg/ml) [%] | CPM of run off transcription (HIV-LTR; 100 μg/ml) [CPM] | % Transcription (% T) (HIV-LTR; 100 μg/ml) [%] | % Inhibitor (100 - % T) (HIV-LTR; 120 μg/ml) [%] | CPM of run off transcription (HIV-LTR; 120 μg/ml) [CPM] | % Transcription (% T) (HIV-LTR; 120 μg/ml) [%] | % Inhibition of Tat Transactivation (HIV-1 Tat protein; 10 μg/ml) [%] | inhibition at 10 µg/mL (HIV-1 Tat protein) [%] | inhibition at 30 µg/mL (HIV-1 Tat protein) [%] | % Inhibitor (100 - % T) (HIV-LTR; [1]) [%]
1 | 3'-demethoxy-6-dehydroxy-8-O-demethoxylisoguaiacin [FB3] | 69% and 59% | 73 | 169 | 27 | 91 | 55 | 9 |  |  |  | 
2 | COc1ccc(C[C@@H](C)[C@@H](C)Cc2ccc(O)c(O)c2)cc1O [FB1, 4'-O-methyl-NDGA] | 99% | 0 | 917 | 147 | 0 | 804 | 129 | 82 | 86 | 100 | > 50
3 | COc1cc(CC(C)C(C)Cc2ccc(O)c(O)c2)ccc1O (stereo not drawn) [FB2, 3'-O-methyl-NDGA] |  |  | 972 | 155 | 0 | 661 | 106 | 86 | 75 | 100 | > 90
4 | C[C@H]1[C@H](c2ccc(O)cc2)c2cc(O)c(O)cc2C[C@H]1C [FB5, 3'-demethoxy-6-O-demethoxylisoguaiacin] | 87% | 40 | 373 | 60 | 58 | 264 | 42 |  | 63 | 84 | 
